Experimental data taken from BindingDB's records for doi:10.1021/jm050019i (University of Illinois At Chicago, 2005).

Target: T1, Dimer of Gag-Pol polyprotein [501-599,Q508K,L534I,L564I,C568A,C596A] (Human immunodeficiency virus 1, UniProt P03367, C568A/C596A/L534I/L564I/Q508K)
T1 construct: 501-599
Experiment: Protease Inhibition Assay
Settings: pH 6.4; 25 °C
Experimental: The Ki values were determined using fluorogenic substrate, 2-(aminobenzoyl)-Thr-Ile-Nle-Phe(p-NO2)-Gln-ArgNH2. A standard curve relating changes in fluorescent intensity to changes in concentration of product was used to convert fluorescent changes into molar velocities. The amount of cleavage was determined by HPLC.

Structure (SMILES): COc1ccc(S(=O)(=O)N(CC(C)C)C[C@@H](O)[C@@H]2CCCC/C=C\COc3c(O)cccc3C(=O)N2)cc1 [(2R)-2-hydroxy-2-[(9S)-15-hydroxy-11-oxo-2,5,6,7,8,9,10,11-octahydro-1,10-benzoxazacyclotridecin-9-yl]-N-(4-methoxyphenyl)-N-(2-methylpropyl)ethane-1-sulfonamido]
- Ki: 2 nM
